The structures appear in SMILES notation. “And” between values parts separate entries of the source, which are not always exact repeats. Identical values can stand only once. Toxic doses and inconclusive results are not listed.

The values below come from PubChem BioAssay AID330 (DTP/NCI, 2004).

This test deals with P388 leukemia ip, CD2F1 mice, survival T/C. Kind of test: NCI In Vivo Anticancer Drug Screen. Data for tumor model P388 Leukemia (intraperitoneal) in CD2F1 (CDF1) mice. As to conditions: endpoint: median survival time, higher = longer survival. The gist of the method:
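Mice carrying the transplanted tumor received test compound or vehicle. Survival was recorded in each group, and the value is the treated-group measurement divided by that of the vehicle-treated control group.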

[1] abbreviates: dose: 3.12 mg/kg/injection, schedule: Q01DX009 (ip), vehicle: saline with Tween-80.
Where [2] appears, read: dose: 6.25 mg/kg/injection, schedule: Q01DX009 (ip), vehicle: saline with Tween-80.
[3] abbreviates: dose: 12.5 mg/kg/injection, schedule: Q01DX009 (ip), vehicle: saline with Tween-80.
Where [4] appears, read: dose: 25.0 mg/kg/injection, schedule: Q01DX009 (ip), vehicle: saline with Tween-80.
Where [5] appears, read: dose: 50.0 mg/kg/injection, schedule: Q01DX009 (ip), vehicle: saline with Tween-80.
Where [6] appears, read: dose: 100.0 mg/kg/injection, schedule: Q01DX009 (ip), vehicle: saline with Tween-80.
Setting [7] is: dose: 200.0 mg/kg/injection, schedule: Q01DX009 (ip), vehicle: saline with Tween-80.
Where [8] appears, read: dose: 50.0 mg/kg/injection, schedule: Q01DX005 (ip), vehicle: saline with Tween-80.
Setting [9] is: dose: 100.0 mg/kg/injection, schedule: Q01DX005 (ip), vehicle: saline with Tween-80.
The mark [10] stands for this setting: dose: 200.0 mg/kg/injection, schedule: Q01DX005 (ip), vehicle: saline with Tween-80.
Setting [11] is: dose: 60.0 mg/kg/injection, schedule: Q01DX005 (ip), vehicle: saline with Tween-80.
The mark [12] stands for this setting: dose: 120.0 mg/kg/injection, schedule: Q01DX005 (ip), vehicle: saline with Tween-80.
The mark [13] stands for this setting: dose: 240.0 mg/kg/injection, schedule: Q01DX005 (ip), vehicle: saline with Tween-80.
[14] abbreviates: dose: 60.0 mg/kg/injection, schedule: Q01DX005 (ip), vehicle: Klucel (hydroxypropylcellulose) (HPC).
Where [15] appears, read: dose: 120.0 mg/kg/injection, schedule: Q01DX005 (ip), vehicle: Klucel (hydroxypropylcellulose) (HPC).
Setting [16] is: dose: 240.0 mg/kg/injection, schedule: Q01DX005 (ip), vehicle: Klucel (hydroxypropylcellulose) (HPC).
The mark [17] stands for this setting: dose: 12.5 mg/kg/injection, schedule: Q01DX005 (ip), vehicle: saline with Tween-80.

Take `CC1=CC(=O)[C@@H](O)[C@]2(C)[C@H]3[C@@]4(O)OC[C@]35[C@H]([C@@H](CO)[C@H]4O)[C@@H](OC3OC(CO)C(O)C(O)C3O)C(=O)O[C@@H]5C[C@@H]12` (stereo partly specified): the T/C is, setting by setting: (dose: 0.25 mg/kg/injection, schedule: Q01DX005 (ip), vehicle: Klucel (hydroxypropylcellulose) (HPC)) 99 % of control; (dose: 0.5 mg/kg/injection, schedule: Q01DX005 (ip), vehicle: Klucel (hydroxypropylcellulose) (HPC)) 99 % of control; (dose: 1.0 mg/kg/injection, schedule: Q01DX005 (ip), vehicle: Klucel (hydroxypropylcellulose) (HPC)) 98 % of control; (dose: 1.87 mg/kg/injection, schedule: Q01DX005 (ip), vehicle: Klucel (hydroxypropylcellulose) (HPC)) 96 % of control; (dose: 2.0 mg/kg/injection, schedule: Q01DX005 (ip), vehicle: Klucel (hydroxypropylcellulose) (HPC)) 100 % of control.

As to `CC(C)=CCCC(C)(O)C1CC=C(C)CC1` (stereo unspecified), the T/C is, setting by setting: (dose: 20.0 mg/kg/injection, schedule: Q01DX005 (ip), vehicle: Klucel (hydroxypropylcellulose) (HPC)) 95 % of control; (dose: 40.0 mg/kg/injection, schedule: Q01DX005 (ip), vehicle: Klucel (hydroxypropylcellulose) (HPC)) 95 % of control; (dose: 80.0 mg/kg/injection, schedule: Q01DX005 (ip), vehicle: Klucel (hydroxypropylcellulose) (HPC)) 98 % of control; (dose: 160.0 mg/kg/injection, schedule: Q01DX005 (ip), vehicle: Klucel (hydroxypropylcellulose) (HPC)) 98 % of control.

For the compound `COc1ccc(N=NS(=O)(=O)O)cn1`, the T/C runs as follows: under setting [1], 93 % of control; under setting [2], 101 % of control; under setting [3], 108 % of control; under setting [4], 97 % of control; under setting [5], 99 % of control and 97 % of control; under setting [6], 94 % of control. In addition, the T/C is 106 % of control under setting [7] and 101 % of control (dose: 400.0 mg/kg/injection, schedule: Q01DX009 (ip), vehicle: saline with Tween-80).

Turning to `c1cc2cc(-c3cc4ccc(C5=NCCN5)cc4[nH]3)[nH]c2cc1C1=NCCN1`, the T/C (dose: 100.0 mg/kg/injection, schedule: Q04DX003 (ip), vehicle: saline) was 210 % of control; the T/C (dose: 200.0 mg/kg/injection, schedule: Q04DX003 (ip), vehicle: saline) is 189 % of control; the T/C (dose: 400.0 mg/kg/injection, schedule: Q04DX003 (ip), vehicle: saline) was 159 % of control.

`c1ccc(Nc2nnc3nc(-c4ccccc4)c(-c4ccccc4)nn23)cc1`: the T/C is 91 % of control under setting [8], 90 % of control under setting [9] and 102 % of control under setting [10].

Regarding `CCn1c(=O)c(Cl)c2n(CC)c3ccccc3n2c1=O`, the T/C is, setting by setting: under setting [11], 97 % of control; under setting [12], 89 % of control; under setting [13], 87 % of control.

For the compound `N#CC(C#N)=C(O)/C(=C/c1ccc(Cl)c(Cl)c1)NC(=O)c1ccccc1`, the T/C reads like this: (dose: 50.0 mg/kg/injection, schedule: Q01DX005 (ip), vehicle: saline) 88 % of control; (dose: 100.0 mg/kg/injection, schedule: Q01DX005 (ip), vehicle: saline) 88 % of control; (dose: 200.0 mg/kg/injection, schedule: Q01DX005 (ip), vehicle: saline) 104 % of control.

Regarding `c1ccc(-c2nnn(-n3nnc(-c4ccccc4)n3)n2)cc1`, the T/C by setting is: (dose: 100.0 mg/kg/injection, schedule: Q04DX003 (ip), vehicle: saline with Tween-80) 97 % of control; (dose: 200.0 mg/kg/injection, schedule: Q04DX003 (ip), vehicle: saline with Tween-80) 100 % of control; (dose: 400.0 mg/kg/injection, schedule: Q04DX003 (ip), vehicle: saline with Tween-80) 97 % of control.

On to `COc1cc(N=Nc2c(Cl)cc([N+](=O)[O-])cc2Cl)c(OC)cc1N=Nc1ccc(N)nc1N`, for which the T/C reads like this: under setting [8], 99 % of control; under setting [9], 100 % of control; under setting [10], 101 % of control.

Turning to `COc1ccc2c(C[N+](C)(C)CCC#N)cc(=O)oc2c1`, the T/C was 100 % of control (dose: 50.0 mg/kg/injection, schedule: Q04DX002 (ip), vehicle: saline); 100 % of control (dose: 100.0 mg/kg/injection, schedule: Q04DX002 (ip), vehicle: saline); 104 % of control (dose: 200.0 mg/kg/injection, schedule: Q04DX002 (ip), vehicle: saline).

Turning to `CC1=CC(O)(c2nc3ccccc3s2)CC(C)(C)C1` (stereo unspecified), the T/C by setting is: under setting [14], 93 % of control; under setting [15], 94 % of control; under setting [16], 92 % of control.

As for `CCC/C(=N\NC(=S)N(C)C)c1ccccn1`, the T/C runs as follows: under setting [17], 103 % of control; (dose: 25.0 mg/kg/injection, schedule: Q01DX005 (ip), vehicle: saline with Tween-80) 107 % of control; under setting [8], 115 % of control and 117 % of control.

As to `O=C(O)C1CCN1C1CCCCC1` (stereo unspecified), the T/C is, setting by setting: (dose: 100.0 mg/kg/injection, schedule: Q01DX009 (ip), vehicle: saline sonified) 90 % of control; (dose: 200.0 mg/kg/injection, schedule: Q01DX009 (ip), vehicle: saline sonified) 100 % of control; (dose: 400.0 mg/kg/injection, schedule: Q01DX009 (ip), vehicle: saline sonified) 104 % of control.

In the case of `COc1ccc(S(=O)(=O)c2coc3ccccc3c2=O)cc1`, the T/C is 110 % of control under setting [11], 103 % of control under setting [12] and 96 % of control under setting [13].

As to `CC(=O)Nc1cn(C)cc1[N+](=O)[O-]`, the T/C reads like this: under setting [5], 102 % of control; under setting [6], 103 % of control; under setting [7], 104 % of control.

As to `CC(=O)Oc1ccc2c3c1CCCN3CCC2`, the T/C reads like this: under setting [11], 108 % of control; under setting [12], 101 % of control; under setting [13], 102 % of control.

For the compound `CNC(=O)OCc1ccc(NCCN(C)C)c2c(=O)c3cc(O)ccc3sc12`, the T/C under setting [17] was 112 % of control.

Take `O=C(CCl)N1c2ccccc2Sc2c1ccc1ccccc21`: the T/C by setting is: under setting [1], 103 % of control; under setting [2], 104 % of control; (dose: 6.25 mg/kg/injection, schedule: Q01DX009 (ip), vehicle: suspension in saline) 100 % of control; under setting [3], 120 % of control; (dose: 12.5 mg/kg/injection, schedule: Q01DX009 (ip), vehicle: suspension in saline) 102 % of control and 122 % of control; under setting [4], 116 % of control. Besides, the T/C by setting is: (dose: 25.0 mg/kg/injection, schedule: Q01DX009 (ip), vehicle: suspension in saline) 103 % of control and 118 % of control; under setting [5], 116 % of control; (dose: 50.0 mg/kg/injection, schedule: Q01DX009 (ip), vehicle: suspension in saline) 103 % of control; under setting [6], 110 % of control; (dose: 100.0 mg/kg/injection, schedule: Q01DX009 (ip), vehicle: suspension in saline) 102 % of control and 123 % of control; (dose: 200.0 mg/kg/injection, schedule: Q01DX009 (ip), vehicle: suspension in saline) 108 % of control.

In the case of `Oc1ccc(CCC2CCC(c3ccc(O)cc3)CO2)cc1` (stereo unspecified), the T/C was 97 % of control (dose: 12.5 mg/kg/injection, schedule: Q01DX005 (ip), vehicle: Klucel (hydroxypropylcellulose) (HPC)); 103 % of control (dose: 25.0 mg/kg/injection, schedule: Q01DX005 (ip), vehicle: Klucel (hydroxypropylcellulose) (HPC)); 86 % of control (dose: 50.0 mg/kg/injection, schedule: Q01DX005 (ip), vehicle: Klucel (hydroxypropylcellulose) (HPC)); 89 % of control (dose: 100.0 mg/kg/injection, schedule: Q01DX005 (ip), vehicle: Klucel (hydroxypropylcellulose) (HPC)); 89 % of control (dose: 200.0 mg/kg/injection, schedule: Q01DX005 (ip), vehicle: Klucel (hydroxypropylcellulose) (HPC)).

Take `NC(N)=NS(=O)(=O)c1ccc(N=Nc2c(O)n(-c3ccccc3)c(=S)n(-c3ccccc3)c2=O)cc1`: the T/C was 105 % of control under setting [14], 99 % of control under setting [15] and 99 % of control under setting [16].

Turning to `COC1OC(C(C)O)C2OC(C)(C)OC12` (stereo unspecified), the T/C is, setting by setting: (dose: 30.0 mg/kg/injection, schedule: Q01DX005 (ip), vehicle: saline with Tween-80) 101 % of control; under setting [11], 104 % of control and 106 % of control; under setting [12], 108 % of control; under setting [13], 106 % of control and 110 % of control.
